Tests used:
[1] = Intrinsic dissolution rate, low-volume rotating disc method; assay type: physicochemical; settings: salt made at 1 g scale from ethanol; disc 0.07 cm^2, 500 rpm, 50 mL USP Phosphate buffer pH 6.8 at 37° C
Description: The salt manufactured at 1 g scale from ethanol was further investigated for its intrinsic dissolution rate and compared to the free base of 4-(5-{(1R)-1-[5-(3-chlorophenyl)isoxazol-3-yl]ethoxy}-4-methyl-4H-1,2,4-triazol-3-yl)pyridine. […] Dissolution rates of the base and salt were measured with a low-volume rotating disc method. Discs were compressed from pure compound and centrically mounted in a disc holder with an exposed area of 0.07 cm^2. The disc holder rotated at 500 rpm immersed in 50 mL USP Phosphate buffer pH 6.8 at 37° C. The compound was analysed UV-Online by a Spectrophotometer with a flow cell and a peristaltic pump with continuous circulation.

[2] = Moisture sorption / deliquescence of the salts at relative humidity; assay type: physicochemical

| intrinsic dissolution rate of the salt as compared to the free base [1] | relative humidity at which moisture sorption is increased ([2]; first batch from ethanol) | relative humidity at which the salt deliquesces ([2]; salt manufactured again from ethanol at 68° C) | relative humidity at which the salt deliquesces ([2]; salt recrystallised from the oiled salt in ethanol) | SMILES |
| --- | --- | --- | --- | --- |
| 1000 times | 90-95 % RH |  |  | C[C@@H](Oc1nnc(-c2ccncc2)n1C)c1cc(-c2cccc(Cl)c2)on1.Cl [Example 17, 4-(5-{(1R)-1-[5-(3-chlorophenyl)isoxazol-3-yl]ethoxy}-4-methyl-4H-1,2,4-triazol-3-yl)pyridine hydrochloride] |
|  |  | 70-80 % RH | 60-70 % relative humidity | C[C@@H](Oc1nnc(-c2ccncc2)n1C)c1cc(-c2cccc(Cl)c2)on1.O=S(=O)(O)O [Example 18, 4-(5-{(1R)-1-[5-(3-chlorophenyl)isoxazol-3-yl]ethoxy}-4-methyl-4H-1,2,4-triazol-3-yl)pyridine sulphate] |

Reference: patent US20080227824A1, “5-(Phenylisoxazolylethoxy) - Triazol- 3 -Yl Substituted Pyridine Compounds for the Treatment of Neurological, Psychiatric or Pain Disorders” (Astrazeneca AB, priority 2005, published 2008)
